Measurements: patent publication US6682908B1, “Mouse growth hormone secretagogue receptor” (Merck & Co., Inc., priority 1998, dated 2004)

Molecular target: T1, mouse GHS-R (Mus musculus, UniProt Q99P50)
T1 construct: the complete and contiguous open reading frame of mGHS-R; expressed in transfected cells; host or cells: 293-AEQ17 (aequorin-expressing reporter cell line), transiently transfected with pcDNA-3/mouse GHS-R
Assay: aequorin bioluminescence assay of mouse GHS-R expressed in 293-AEQ17 cells
Format: cell-based
Conditions: expression of the complete and contiguous open reading frame of mGHS-R; aequorin biolumenescence assay
Protocol: The mouse isoform of the previously identified GHS-R was cloned from two genomic DNA libraries for the generation of a GHS-R knock-out mouse.
The cells were harvested, washed once in ECB medium and resuspended to 500,000 cells/ml. One hundred (100) […] of cell suspension (corresponding to 5×10^4 cells) was then injected into each well of a 96-well microtiter test plate, and the integrated light emission was recorded over 30 seconds, in 0.5 second units. Twenty (20) μl of lysis buffer (0.1% final Triton X-100 concentration) was then injected and the integrated light emission recorded over 10 seconds, in 0.5 second units. The “fractional response” values for each well were calculated by taking the ratio of the integrated response to the initial challenge to the total integrated luminescence including the Triton X-100 lysis response. Data were analyzed using GraphPad Prism software V.2.0 (GraphPad Software, San Diego, Calif.).

T1 sequence (Q99P50 whole entry): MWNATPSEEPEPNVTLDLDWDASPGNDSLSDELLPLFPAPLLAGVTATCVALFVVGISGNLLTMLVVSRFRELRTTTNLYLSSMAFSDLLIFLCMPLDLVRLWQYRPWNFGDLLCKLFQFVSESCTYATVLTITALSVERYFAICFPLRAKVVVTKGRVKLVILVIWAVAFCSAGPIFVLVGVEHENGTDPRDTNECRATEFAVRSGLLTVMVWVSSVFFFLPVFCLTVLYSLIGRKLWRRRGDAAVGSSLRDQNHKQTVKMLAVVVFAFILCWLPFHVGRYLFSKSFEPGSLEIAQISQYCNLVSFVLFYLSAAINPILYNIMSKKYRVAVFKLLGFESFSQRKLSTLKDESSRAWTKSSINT

| functional activation of mGHS-R | Compound |
| --- | --- |
| functionally activated | CC(C)(N)C(=O)N[C@H](COCc1ccccc1)C(=O)N1CCC2(CC1)CN(S(C)(=O)=O)c1ccccc12 [MK-0677] |
| functionally activated | GHRP-6 |
